# Assay results published in patent US20160287534A1, “METHODS FOR REVERSING FIBROSIS” (The University of Connecticut, priority 2015, published 2016).
# Tests used:
# Format in all cases: cell-based
# mouse primary HSCs = assay: Activation of mouse primary qHSCs (Example 2): morphology, qRT-PCR, Western blot
# Experimental: (§1) Mouse primary HSCs were isolated from C57BL/6J, nuclear erythroid 2-related factor 2 (NRF2) knockout (Nrf2−/−), and wild-type mice using a pronase/collagenase digestion method as described herein Example 1. The cells were then cultured on untreated petri dishes (BD Falcon, Franklin Lakes, N.J.), and maintained in a low-glucose DMEM medium supplemented with 10% FBS, 4 mM L-glutamine, and P/S (100 U/100 μg per mL). Human primary HSCs (Zen-Bio, Research Triangle Park, N.C.) were maintained in a low-glucose DMEM medium containing 2% FBS, 4 mM L-glutamine, 1× nonessential amino acids, 1× vitamins, and P/S (100 U/100 μg per mL). The cells were seeded on a collagen-coated plate for experiments (Sarstedt, Newton, N.C.). LX-2 cells, kindly provided by Dr. Scott Friedman at the Icahn School of Medicine at Mount Sinai (New York, N.Y.), were maintained in a low-glucose DMEM supplemented with 2% FBS, 4 mM L-glutamine, and P/S (100 U/100 μg per mL). All cells were cultured in a 37° C. humidified cell culture chamber with 5% CO2. Cell culture supplies were purchased from HyClone unless stated otherwise (Thermo Scientific, Logan, Utah).
# (§2) ASTX, provided by Fuji Chemical Industry Co., Ltd. (Toyama, Japan), was prepared in DMSO as described herein in Example 1. After plated on an uncoated dish, mouse qHSCs were incubated with 25 μM ASTX during activation. aHSCs, which were prepared by culturing qHSCs on an uncoated dish for 6 d, were incubated with 25 μM ASTX for 2 or 4 more days. Also, cells were incubated with 3 μM tert-butyl hydrogen peroxide (tBHP, Thermo Scientific) for 12 h with or without 25 μM ASTX. Medium containing ASTX was replenished daily and DMSO vehicle control was always run in parallel. Human primary HSC were treated with 25 μM ASTX for 24 h, after which they were activated by 3 ng/mL of TGFβ1 (Peprotech, Rocky Hill, N.J.) for 24 h.
# (§3) Total RNA extraction, cDNA synthesis, and qRT-PCR were conducted using a Bio-Rad CFX96 Real-Time system (Bio-Rad, Hercules, Calif.) as previously described (Id.). Primer sequences will be available upon request.
# (§4) Whole cell lysates and human tissue protein extracts were prepared and Western blot analysis were performed as described (Id.) using antibodies against α-SMA (Sigma, St. Louis, Mo.), HDAC3 (Santa Cruz Biotechnology, Santa Cruz, Calif.), HDAC4 (Santa Cruz Biotechnology), HDAC9 (Abcam, Cambridge, Mass.; Novus Biologicals, Littleton, Colo.), Col1A1 (Sigma). β-tubulin (Santa Cruz) or glyceraldehyde 3-phosphate dehydrogenase (GAPDH) (Santa Cruz) was used as a loading control.
# [1] = test system: HDAC9 and myocyte enhancer factor 2 (MEF2); assay: HDAC and MEF2 mRNA and protein expression in mouse primary HSCs
# Experimental: as §2, §3, §4
# human primary HSCs = assay: qRT-PCR of fibrogenic genes in human primary HSCs
# Experimental: as §1
# ASTX, provided by Fuji Chemical Industry Co., Ltd. (Toyama, Japan), was prepared in DMSO as described herein in Example 1. […]
# LX-2 cells = assay: qRT-PCR of fibrogenic genes in LX-2 cells (Example 2)
# Experimental: as §1
# Total RNA extraction, cDNA synthesis, and qRT-PCR were conducted using a Bio-Rad CFX96 Real-Time system (Bio-Rad, Hercules, Calif.) as previously described (Id.). Primer sequences will be available upon request. […]
# [2] = ASTX added at day 4 for 2 d during HSC activation (FIG. 8B)
# [3] = ASTX added at day 4 for 2 d during HSC activation (FIG. 10D)
compound,measurement,setting,value
"CC1=C(/C=C/C(C)=C/C=C/C(C)=C/C=C/C=C(C)/C=C/C=C(C)/C=C/C2=C(C)C(=O)C(O)CC2(C)C)C(C)(C)CC(O)C1=O (centres unmarked) [ASTX, astaxanthin]",NOX2 mRNA,mouse primary HSCs; [2],decreased
same,NOX4 mRNA,mouse primary HSCs; [2],significantly increased
same,protein levels of α-SMA,mouse primary HSCs; ASTX for 2 days during activation (FIG. 7C),noticeably decreased
same,cytoplasmic lipid droplets,"mouse primary HSCs; day 6, cells treated with ASTX for 2-6 days (FIG. 7A)",more lipid droplets than controls
same,cell morphology vs control,"mouse primary HSCs; days 2 and 4 of activation, 25 μM ASTX (FIG. 7A)",no noticeable differences
same,α-SMA and Col1A1 mRNA,"mouse primary HSCs; during activation of qHSCs, 25 μM ASTX (FIG. 7B)",significantly decreased
same,HDAC2 protein level,[1]; [3],minimally altered
same,decrease of HDAC3 and 4 protein levels,[1]; [3],~50%
same,decrease of HDAC9 protein level,[1]; [3],~70%
same,mRNA levels of HDAC9,[1]; aHSCs incubated with ASTX for 2 d (FIG. 10F),significantly repressed
same,mRNA levels of MEF2 isoforms,[1]; aHSCs incubated with ASTX for 2 d (FIG. 10G),significantly repressed
same,"induction of MEF2a, 2c and 2d mRNA","[1]; during HSC activation, ASTX for 2 d from day 4 (FIG. 10E)",significantly attenuated
same,HDAC9 mRNA induction,[1]; during activation of qHSCs (FIG. 10B),significantly decreased
same,TGFβ1-mediated induction of α-SMA and Col1A1 mRNA,"human primary HSCs; 25 μM ASTX 24 h, then TGFβ1 3 ng/ml 24 h (FIGS. 11A, 11B)",attenuated
same,basal levels of α-SMA and Col1A1 mRNA,"human primary HSCs; 25 μM ASTX (FIGS. 11A, 11B)",attenuated
same,basal levels of α-SMA and Col1A1 expression,LX-2 cells; LX-2 cells pretreated with ASTX 12 h (FIG. 13A),repressed
same,α-SMA and Col1A1 expression induced by TGFβ1,"LX-2 cells; LX-2 cells, ASTX 12 h, then 3 ng/mL TGFβ1 12 h (FIG. 13A)",attenuated
